According to ChEMBL document CHEMBL3297692, “Discovery of naphthyl-fused 5-membered lactams as a new class of m1 positive allosteric modulators” (ACS Med Chem Lett, 2014):
Values after ≈ are worked out from the molar mass of the structure shown. Active and inactive are the calls of the source. The rule behind the calls is not given here.

How the values were obtained:
[1] = Apparent passive permeability of the compound; format: physicochemical; conditions: not told
[2] = molecular target: MDR1 (ABCB1, P-glycoprotein) (Homo sapiens, UniProt P08183); experiment: Effect on human MDR1-mediated drug transport assessed as efflux ratio of permeability from basolateral to apical side over apical to basolateral side; format: ADME; conditions: not told
Sequence of MDR1 (ABCB1, P-glycoprotein) (P08183 whole entry): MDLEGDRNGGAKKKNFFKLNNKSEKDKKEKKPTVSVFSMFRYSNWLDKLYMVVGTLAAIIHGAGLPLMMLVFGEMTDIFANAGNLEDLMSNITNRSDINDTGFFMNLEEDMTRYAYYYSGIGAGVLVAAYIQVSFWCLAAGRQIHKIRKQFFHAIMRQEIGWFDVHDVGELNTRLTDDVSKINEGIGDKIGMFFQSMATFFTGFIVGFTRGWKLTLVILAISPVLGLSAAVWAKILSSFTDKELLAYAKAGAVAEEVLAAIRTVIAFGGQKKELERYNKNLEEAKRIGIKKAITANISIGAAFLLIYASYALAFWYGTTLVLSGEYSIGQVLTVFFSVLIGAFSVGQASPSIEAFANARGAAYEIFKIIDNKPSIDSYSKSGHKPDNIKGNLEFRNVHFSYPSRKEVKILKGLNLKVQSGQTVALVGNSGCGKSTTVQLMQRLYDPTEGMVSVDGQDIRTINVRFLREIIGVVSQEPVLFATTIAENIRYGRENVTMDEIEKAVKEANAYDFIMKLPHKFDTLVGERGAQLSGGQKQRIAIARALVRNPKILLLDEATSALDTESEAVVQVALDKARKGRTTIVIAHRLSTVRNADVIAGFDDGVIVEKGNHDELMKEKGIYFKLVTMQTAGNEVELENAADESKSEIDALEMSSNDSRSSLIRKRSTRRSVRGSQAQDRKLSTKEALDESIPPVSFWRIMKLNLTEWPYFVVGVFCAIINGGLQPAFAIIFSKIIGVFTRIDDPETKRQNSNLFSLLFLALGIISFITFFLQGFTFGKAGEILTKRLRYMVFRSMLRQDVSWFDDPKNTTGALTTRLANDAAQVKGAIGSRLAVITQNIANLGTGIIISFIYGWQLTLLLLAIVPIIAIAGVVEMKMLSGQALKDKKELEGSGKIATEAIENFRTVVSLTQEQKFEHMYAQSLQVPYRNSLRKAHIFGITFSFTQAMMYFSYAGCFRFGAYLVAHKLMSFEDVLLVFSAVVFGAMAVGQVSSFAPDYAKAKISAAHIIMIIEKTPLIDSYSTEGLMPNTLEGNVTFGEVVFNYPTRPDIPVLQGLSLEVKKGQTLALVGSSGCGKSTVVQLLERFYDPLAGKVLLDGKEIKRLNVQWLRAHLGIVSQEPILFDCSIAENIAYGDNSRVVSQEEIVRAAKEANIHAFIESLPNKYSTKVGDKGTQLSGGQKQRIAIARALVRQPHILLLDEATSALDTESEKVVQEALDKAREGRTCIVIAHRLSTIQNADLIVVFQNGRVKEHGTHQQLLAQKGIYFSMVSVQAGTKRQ

[3] = Plasma protein binding in human by equilibrium dialysis method; format: ADME, cell-free; conditions: read-out: PPB (converted)
[4] = Plasma protein binding in rat by equilibrium dialysis method; format: ADME, cell-free; conditions: read-out: PPB (converted)
[5] = test system: MDR1a; experiment: Effect on rat MDR1a-mediated drug transport assessed as efflux ratio of permeability from basolateral to apical side over apical to basolateral side; format: ADME; conditions: not told
[6] = molecular target: T1, Muscarinic acetylcholine receptor M1 (Homo sapiens) (UniProt P11229); experiment: Positive allosteric modulation of human mAChR1 expressed in CHONFAT cells assessed as potention of acetylcholine-induced effect incubated for 4 mins prior to acetylcholine addition measured after 4 mins by FLIPR assay; format: cell-based
T1 sequence (whole entry): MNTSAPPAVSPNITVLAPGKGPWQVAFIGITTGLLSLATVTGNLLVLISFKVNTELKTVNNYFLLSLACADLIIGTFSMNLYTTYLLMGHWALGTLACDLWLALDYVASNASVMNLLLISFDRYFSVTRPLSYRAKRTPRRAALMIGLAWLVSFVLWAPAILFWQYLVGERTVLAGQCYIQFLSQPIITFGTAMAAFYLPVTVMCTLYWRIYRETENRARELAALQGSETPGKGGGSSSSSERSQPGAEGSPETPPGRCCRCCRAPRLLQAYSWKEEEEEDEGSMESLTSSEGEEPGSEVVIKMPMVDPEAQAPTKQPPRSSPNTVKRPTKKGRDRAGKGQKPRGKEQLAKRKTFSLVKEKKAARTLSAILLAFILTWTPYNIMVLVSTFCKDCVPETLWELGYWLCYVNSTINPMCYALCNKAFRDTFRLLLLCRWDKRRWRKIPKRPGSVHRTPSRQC

[7] = test system: Mus musculus; experiment: Reversal of scopolamine-induced memory deficit in ip dosed B6SJL mouse contextual fear conditioning model at 1 uM plasma level after 30 mins relative to vehicle-treated control; format: functional, organism-based
[8] = test system: Nucleic Acid; experiment: Ratio of drug uptake in Sprague-Dawley rat cerebrospinal fluid to unbound plasma level in rat; format: ADME
[9] = test system: Cerebrospinal fluid; experiment: Drug uptake in cerebrospinal fluid in Sprague-Dawley rat at 10 mg/kg, po; format: ADME, organism-based; design: dose 10 mg/kg, route oral; conditions: in vivo, read-out: Drug uptake
[10] = Solubility of the compound at pH 2; format: physicochemical; conditions: buffer
[11] = test system: Plasma; experiment: Plasma concentration in Sprague-Dawley rat at 10 mg/kg, po; format: ADME, organism-based; design: dose 10 mg/kg, route oral; conditions: in vivo
[12] = Lipophilicity, log D of the compound by HPLC analysis; format: physicochemical
[13] = Solubility of the compound at pH 7; format: physicochemical; conditions: buffer
[14] = test system: Plasma; experiment: Plasma concentration in B6SJL mouse contextual fear conditioning model at 1 mg/kg, ip; format: ADME, organism-based; design: dose 1 mg/kg, route intraperitoneal; conditions: in vivo
[15] = molecular target: T1, Muscarinic acetylcholine receptor M1 (Homo sapiens); experiment: Potentiation of human mAChR1 expressed in CHONFAT cells assessed as fold shift acetylcholine response curve incubated for 4 mins prior to acetylcholine addition measured after 4 mins relative to control; format: cell-based
[16] = Volume of distribution at steady state in rat at 2 mg/kg, iv; format: ADME, organism-based; design: dose 2 mg/kg, route intravenous; conditions: in vivo, read-out: Vdss
[17] = Fraction unbound in rat plasma by equilibrium dialysis method; format: ADME, cell-free
[18] = Volume of distribution at steady state in dog at 0.125 mg/kg, iv; format: ADME, organism-based, Canis lupus familiaris; design: dose 0.125 mg/kg, route intravenous; conditions: in vivo, read-out: Vdss
[19] = Clearance in rat at 2 mg/kg, iv; format: ADME, organism-based; design: dose 2 mg/kg, route intravenous; conditions: in vivo
[20] = Half life in rat at 2 mg/kg, iv; format: ADME, organism-based; design: dose 2 mg/kg, route intravenous; conditions: in vivo
[21] = Fraction unbound in human plasma by equilibrium dialysis method; format: ADME, cell-free
[22] = Clearance in dog at 0.125 mg/kg, iv; format: ADME, organism-based, Canis lupus familiaris; design: dose 0.125 mg/kg, route intravenous; conditions: in vivo
[23] = Half life in dog at 0.125 mg/kg, iv; format: ADME, organism-based, Canis lupus familiaris; design: dose 0.125 mg/kg, route intravenous; conditions: in vivo
[24] = molecular target: T1, Muscarinic acetylcholine receptor M1 (Homo sapiens); experiment: Potentiation of human mAChR1 expressed in CHONFAT cells assessed as fold shift in acetylcholine response curve at 1.8 uM incubated for 4 mins prior to acetylcholine addition measured after 4 mins relative to control; format: cell-based
[25] = test system: Mus musculus; experiment: Reversal of scopolamine-induced memory deficit in B6SJL mouse contextual fear conditioning model at 1 mg/kg, ip after 30 mins relative to vehicle-treated control; format: functional, organism-based; design: dose 1 mg/kg

Row | SMILES | Papp [1] | efflux ratio [2] | fraction unbound [3] | fraction unbound [4] | efflux ratio [5] | IP [6] | further results
1 | N#CC1(c2ccccc2)CCN(Cc2cc3c(c4ccccc24)CN([C@H]2CCCC[C@@H]2O)C3=O)CC1 | 23 ×10⁻⁶ cm/s | 1.7 | 0.011 | 0.006 | 3.4 | 83 nM | 
2 | N#CC1(c2ccccn2)CCN(Cc2cc(C(=O)O)c(=O)n3ccccc23)CC1 |  |  |  |  |  |  | Activity [7]: Active
3 | N#CC1(c2ccncn2)CCN(Cc2cc3c(c4ccccc24)CN([C@H]2CCCC[C@@H]2O)C3=O)CC1 | 29 ×10⁻⁶ cm/s | 6 | 0.09 | 0.07 | 20 | 17 nM | 
4 | N#CC1(c2ccncc2)CCN(Cc2cc3c(c4ccccc24)CN([C@H]2CCCC[C@@H]2O)C3=O)CC1 | 30 ×10⁻⁶ cm/s | 26 |  |  | 49 | 22 nM | 
5 | O=C1c2cc(CN3CCC(F)(c4ccccn4)CC3)c3ccccc3c2CN1[C@H]1CCCC[C@@H]1O | 34 ×10⁻⁶ cm/s | 2.1 | 0.03 | 0.015 | 2.7 | 58 nM | 
6 | N#CC1(c2ccccn2)CCN(Cc2cc3c(c4ccccc24)CN(C2CCCOC2)C3=O)CC1 (centres undefined) |  |  |  |  |  | 1500 nM | 
7 | CC1c2c(cc(CN3CCC(C#N)(c4ccccn4)CC3)c3ccccc23)C(=O)N1[C@H]1CCCC[C@@H]1O (mixture of isomers) | 29 ×10⁻⁶ cm/s | 1.7 | 0.06 | 0.014 | 4.1 | 19 nM | Ratio [8]: 0.3; concentration [9]: 4.7 nM; solubility [10]: 198 µM; concentration [11]: 1120 nM; logD [12]: 3.4; solubility [13]: 19 µM
8 | N#CC1(c2cccnn2)CCN(Cc2cc3c(c4ccccc24)CN([C@H]2CCCC[C@@H]2O)C3=O)CC1 | 27 ×10⁻⁶ cm/s |  | 0.144 | 0.146 |  | 27 nM | 
9 | N#CC1(c2cccnc2)CCN(Cc2cc3c(c4ccccc24)CN([C@H]2CCCC[C@@H]2O)C3=O)CC1 | 32 ×10⁻⁶ cm/s |  |  |  |  | 22 nM | 
10 | N#CC1(c2ccccn2)CCN(Cc2cc3c(c4ccccc24)CN(c2ccccc2F)C3=O)CC1 |  |  |  |  |  | 290 nM | 
11 | N#CC1(c2ccccn2)CCN(Cc2cc3c(c4ccccc24)CN([C@@H]2CCCC[C@H]2O)C3=O)CC1 |  |  |  |  |  | 540 nM | 
12 | N#CC1(c2ccccn2)CCN(Cc2cc3c(c4ccccc24)CN(C2CCOCC2)C3=O)CC1 |  |  |  |  |  | 280 nM | 
13 | Cc1ccnc(C2(C#N)CCN(Cc3cc4c(c5ccccc35)CN([C@H]3CCCC[C@@H]3O)C4=O)CC2)c1 | 22 ×10⁻⁶ cm/s | 1.3 | 0.006 | 0.007 | 4.5 | 16 nM | Ratio [8]: 0.52; concentration [9]: 8.6 nM; solubility [10]: 179 µM (≈ 88.5 µg/mL); concentration [11]: 2340 nM; logD [12]: 3.3; solubility [13]: 3 µM (≈ 1.48 µg/mL)
14 | N#CC1(c2ccccn2)CCN(Cc2cc3c(c4ccccc24)CN([C@H]2CCCC[C@@H]2O)C3=O)CC1 | 34 ×10⁻⁶ cm/s | 3.2 | 0.08 | 0.05 | 4.3 | 15 nM | concentration [14]: 1500 nM; Activity [15]: Dose-dependent effect; Vd [16]: 2.8 L/kg; fraction unbound [17]: 0.05; Ratio [8]: 0.51; Vd [18]: 1.2 L/kg; concentration [9]: 134 nM; clearance [19]: 4.1 mL/min/kg; half-life [20]: 720 min; solubility [10]: 195 µM (≈ 93.7 µg/mL); fraction unbound [21]: 0.08; concentration [11]: 5180 nM; clearance [22]: 2.1 mL/min/kg; half-life [23]: 402 min; fold change (FC) [24]: 40; logD [12]: 2.9; Activity [25]: Active; solubility [13]: 11 µM (≈ 5.29 µg/mL)
15 | Cc1cccc(C2(C#N)CCN(Cc3cc4c(c5ccccc35)CN([C@H]3CCCC[C@@H]3O)C4=O)CC2)n1 | 28 ×10⁻⁶ cm/s | 1.5 | 0.01 | 0.01 | 3.1 | 27 nM | 
16 | N#CC1(c2ccccn2)CCN(Cc2cc3c(c4ccccc24)CN([C@H]2CCCC[C@H]2O)C3=O)CC1 |  |  |  |  |  | 150 nM | 
17 | N#CC1(c2cnccn2)CCN(Cc2cc3c(c4ccccc24)CN([C@H]2CCCC[C@@H]2O)C3=O)CC1 | 31 ×10⁻⁶ cm/s | 8 | 0.086 | 0.142 | 11 | 31 nM | 
